In ChEMBL document CHEMBL1147715, “Gatifloxacin derivatives: synthesis, antimycobacterial activities, and inhibition of Mycobacterium tuberculosis DNA gyrase” (Bioorg Med Chem Lett, 2006) one finds MIC data, which are given here for 17 molecules.

This assay deals with Mycobacterium tuberculosis. Put plainly: Antimycobacterial activity against multi-drug resistant Mycobacterium tuberculosis. Format: functional.

In brackets after ≈: the same amount, converted by molar mass.

In the case of `COc1c(N2CCN(Cn3c(O)c(/N=N/C(=O)c4ccncc4)c4cc(C)ccc43)C(C)C2)c(F)cc2c(=O)c(C(=O)O)cn(C3CC3)c12` (configuration not stated), the MIC (usually the least concentration at which growth counts as inhibited) was determined as 0.78 µg/mL (≈ 1.17 µM). Consider `COc1c(N2CCN(Cn3c(O)c(/N=N/C(=N)S)c4ccccc43)C(C)C2)c(F)cc2c(=O)c(C(=O)O)cn(C3CC3)c12` (configuration not stated), for which the MIC was 0.2 µg/mL (≈ 0.329 µM). The value for `COc1c(N2CCN(Cn3c(O)c(/N=N/C(=O)c4ccncc4)c4ccccc43)C(C)C2)c(F)cc2c(=O)c(C(=O)O)cn(C3CC3)c12` (configuration not stated) was 0.2 µg/mL (≈ 0.306 µM); that for `COc1c(N2CCN(Cn3c(O)c(/N=N/C(N)=O)c4cc(Cl)ccc43)C(C)C2)c(F)cc2c(=O)c(C(=O)O)cn(C3CC3)c12` (configuration not stated) was 0.78 µg/mL (≈ 1.25 µM). The same measure for `COc1c(N2CCN(Cn3c(O)c(/N=N/C(=N)S)c4cc(Cl)ccc43)C(C)C2)c(F)cc2c(=O)c(C(=O)O)cn(C3CC3)c12` (configuration not stated): 0.78 µg/mL (≈ 1.21 µM). The same measure for `COc1c(N2CCN(Cn3c(O)c(/N=N/C(N)=O)c4ccccc43)C(C)C2)c(F)cc2c(=O)c(C(=O)O)cn(C3CC3)c12` (configuration not stated): 0.05 µg/mL (≈ 0.0845 µM); for `COc1c(N2CCN(Cn3c(O)c(/N=N/C(=O)c4ccncc4)c4cc(F)ccc43)C(C)C2)c(F)cc2c(=O)c(C(=O)O)cn(C3CC3)c12` (configuration not stated): 0.78 µg/mL (≈ 1.16 µM); for `COc1c(N2CCN(CN3C(=O)/C(=N\c4ccc(S(=O)(=O)Nc5ncccn5)cc4)c4ccccc43)C(C)C2)c(F)cc2c(=O)c(C(=O)O)cn(C3CC3)c12` (configuration not stated): 0.1 µg/mL (≈ 0.13 µM).

Turning to `COc1c(N2CCN(Cn3c(O)c(/N=N/C(=N)S)c4cc(C)ccc43)C(C)C2)c(F)cc2c(=O)c(C(=O)O)cn(C3CC3)c12` (configuration not stated), the lowest concentration to inhibit growth (MIC) was 0.78 µg/mL (≈ 1.25 µM). `COc1c(N2CCN(Cn3c(O)c(/N=N/C(=O)c4ccncc4)c4cc(Cl)ccc43)C(C)C2)c(F)cc2c(=O)c(C(=O)O)cn(C3CC3)c12` (configuration not stated) had an MIC of 0.78 µg/mL (≈ 1.13 µM). For the molecule `COc1c(N2CCN(CN3C(=O)/C(=N\c4ccc(S(=O)(=O)Nc5ncccn5)cc4)c4cc(F)ccc43)C(C)C2)c(F)cc2c(=O)c(C(=O)O)cn(C3CC3)c12` (configuration not stated), 0.1 µg/mL (≈ 0.127 µM) was the least that counted as inhibitory (MIC). In turn, `COc1c(N2CCNC(C)C2)c(F)cc2c(=O)c(C(=O)O)cn(C3CC3)c12` (configuration not stated) [GATIFLOXACIN] gave a minimum inhibitory concentration (MIC) of 3.12 µg/mL (≈ 8.31 µM). The value for `COc1c(N2CCN(CN3C(=O)/C(=N\c4ccc(S(=O)(=O)Nc5ncccn5)cc4)c4cc(Cl)ccc43)C(C)C2)c(F)cc2c(=O)c(C(=O)O)cn(C3CC3)c12` (configuration not stated) was 0.1 µg/mL (≈ 0.125 µM); that for `COc1c(N2CCN(CN3C(=O)/C(=N\c4ccc(S(=O)(=O)Nc5ncccn5)cc4)c4cc(C)ccc43)C(C)C2)c(F)cc2c(=O)c(C(=O)O)cn(C3CC3)c12` (configuration not stated) was 0.78 µg/mL (≈ 0.999 µM). The same measure for `COc1c(N2CCN(Cn3c(O)c(/N=N/C(=N)S)c4cc(F)ccc43)C(C)C2)c(F)cc2c(=O)c(C(=O)O)cn(C3CC3)c12` (configuration not stated): 0.1 µg/mL (≈ 0.16 µM). Turning to `COc1c(N2CCN(Cn3c(O)c(/N=N/C(N)=O)c4cc(F)ccc43)C(C)C2)c(F)cc2c(=O)c(C(=O)O)cn(C3CC3)c12` (configuration not stated), inhibition of growth (MIC) required 0.2 µg/mL (≈ 0.328 µM). `COc1c(N2CCN(Cn3c(O)c(/N=N/C(N)=O)c4cc(C)ccc43)C(C)C2)c(F)cc2c(=O)c(C(=O)O)cn(C3CC3)c12` (configuration not stated) displayed a minimal inhibitory concentration (MIC) of 0.78 µg/mL (≈ 1.29 µM).
